Data reported in ChEMBL document CHEMBL4602662, “Orthoscuticellines A-E, β-Carboline Alkaloids from the Bryozoan Orthoscuticella ventricosa Collected in Australia” (J Nat Prod, 2020).

Assays:
Plasmodium falciparum [1] = assay: Antiplasmodial activity against chloroquine-sensitive Plasmodium falciparum 3D7 incubated for 72 hrs by DAPI-staining based imaging analysis; assay type: functional, organism-based; details: 3D7, 72 h
HEK293 [2] = assay: Cytotoxicity against HEK293 cells at 40 uM incubated for 72 hrs by resazurin dye based assay relative to control; assay type: cell-based; details: human, hek293, 72 h
HEK293 [3] = assay: Cytotoxicity against HEK293 cells incubated for 72 hrs by resazurin dye based assay; assay type: cell-based; details: Homo sapiens, HEK293, 72 h
Plasmodium falciparum [4] = assay: Antiplasmodial activity against Plasmodium falciparum K1; assay type: functional, organism-based
[5] = Stability of compound; assay type: physicochemical

Structure (SMILES)	IC50 (Plasmodium falciparum [1])	IC50 (HEK293 [3])	IC50 (Plasmodium falciparum [4])	also measured
c1ccc2c(c1)[nH]c1c([C@H]3CC[C@@H]3c3nccc4c3[nH]c3ccccc34)nccc12	> 40 µM	> 40 µM		Activity (HEK293 [2]): 29%
CCc1nccc2c1[nH]c1ccccc12	18 µM	> 40 µM		Activity (HEK293 [2]): 35%
CN1CCN(c2nccc3c2[nH]c2ccccc23)CC1			1 to 18 µM	
OC1CCCN(c2nccc3c2[nH]c2ccccc23)C1 (stereo not drawn)			1 to 18 µM	
CN(C)CCc1nccc2c1[nH]c1ccccc12				Stability [5]: Unstable
c1ccc2c(c1)[nH]c1c(N3CCC(N4CCCCCC4)CC3)nccc12			1 to 18 µM	
CCc1ncc(S(C)(=O)=O)c2c1[nH]c1ccccc12	21 µM	> 40 µM		Activity (HEK293 [2]): 17%
c1ccc2c(c1)[nH]c1c([C@H]3CC[C@H]3c3nccc4c3[nH]c3ccccc34)nccc12	10 µM	10 µM		
O=S(=O)(O)CCc1nccc2c1[nH]c1ccccc12	12 µM	> 40 µM		Activity (HEK293 [2]): 30%
c1ccc2c(c1)[nH]c1c(N3CCOCC3)nccc12			1 to 18 µM	
c1ccc2c(c1)[nH]c1c(N3CCC(N4CCCC4)CC3)nccc12			1 to 18 µM	
OCC(O)c1nccc2c1[nH]c1ccccc12 (stereo not drawn)	14 µM	> 40 µM		Activity (HEK293 [2]): 37%
C[C@H]1[C@H](OC(=O)CCC(=O)O)O[C@@H]2O[C@@]3(C)CC[C@H]4[C@H](C)CC[C@@H]1[C@@]24OO3 [ARTESUNATE]	0.0003 µM			
CCN(CC)CCCC(C)Nc1nccc2c1[nH]c1ccccc12 (stereo not drawn)			1 to 18 µM	
CN(C)CCCNc1nccc2c1[nH]c1ccccc12			1 to 18 µM	
OCCNc1nccc2c1[nH]c1ccccc12			1 to 18 µM	
CCN(CC)CCCNc1nccc2c1[nH]c1ccccc12			1 to 18 µM	
CCN(CC)CCCC(C)Nc1ccnc2cc(Cl)ccc12 (stereo not drawn) [CHLOROQUINE]		> 40 µM		Activity (HEK293 [2]): 40%
c1ccc2c(c1)[nH]c1c(N3CCC(N4CCCCC4)CC3)nccc12			1 to 18 µM	
c1ccc2c(c1)[nH]c1c(N3CCCCC3)nccc12			1 to 18 µM	
CCN(CC)C1CCN(c2nccc3c2[nH]c2ccccc23)CC1			1 to 18 µM	
